Laboratory results from publication doi:10.1101/822718v2 (biorxiv, 2020).
Read-outs that look alike come from different tables or passages of the source. Values belong to the compound of their own block, whether it stands above or below them.

Tests used:
[1] = target: T1, truncated elephant shark GR (Elephant shark GR-DBD-hinge-LBD) (Callorhinchus milii, UniProt V9KGN8); assay: cell-based; set-up: species or system HEK293
T1 sequence (V9KGN8 346-704 limits assumed): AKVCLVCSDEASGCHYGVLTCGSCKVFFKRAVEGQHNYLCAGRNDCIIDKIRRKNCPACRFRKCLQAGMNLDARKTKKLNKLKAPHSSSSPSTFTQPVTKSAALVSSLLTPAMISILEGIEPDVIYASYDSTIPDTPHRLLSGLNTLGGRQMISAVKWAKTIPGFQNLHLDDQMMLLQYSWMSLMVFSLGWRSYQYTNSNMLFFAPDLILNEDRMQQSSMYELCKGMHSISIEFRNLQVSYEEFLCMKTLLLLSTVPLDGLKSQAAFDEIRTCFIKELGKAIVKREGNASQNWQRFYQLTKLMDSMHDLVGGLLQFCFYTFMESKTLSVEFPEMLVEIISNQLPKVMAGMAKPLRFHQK

[2] = target: T2, full-length elephant shark MR (Callorhinchus milii, UniProt A0A4W3I5J5); assay: cell-based; set-up: species or system HEK293
T2 sequence (A0A4W3I5J5 1-956): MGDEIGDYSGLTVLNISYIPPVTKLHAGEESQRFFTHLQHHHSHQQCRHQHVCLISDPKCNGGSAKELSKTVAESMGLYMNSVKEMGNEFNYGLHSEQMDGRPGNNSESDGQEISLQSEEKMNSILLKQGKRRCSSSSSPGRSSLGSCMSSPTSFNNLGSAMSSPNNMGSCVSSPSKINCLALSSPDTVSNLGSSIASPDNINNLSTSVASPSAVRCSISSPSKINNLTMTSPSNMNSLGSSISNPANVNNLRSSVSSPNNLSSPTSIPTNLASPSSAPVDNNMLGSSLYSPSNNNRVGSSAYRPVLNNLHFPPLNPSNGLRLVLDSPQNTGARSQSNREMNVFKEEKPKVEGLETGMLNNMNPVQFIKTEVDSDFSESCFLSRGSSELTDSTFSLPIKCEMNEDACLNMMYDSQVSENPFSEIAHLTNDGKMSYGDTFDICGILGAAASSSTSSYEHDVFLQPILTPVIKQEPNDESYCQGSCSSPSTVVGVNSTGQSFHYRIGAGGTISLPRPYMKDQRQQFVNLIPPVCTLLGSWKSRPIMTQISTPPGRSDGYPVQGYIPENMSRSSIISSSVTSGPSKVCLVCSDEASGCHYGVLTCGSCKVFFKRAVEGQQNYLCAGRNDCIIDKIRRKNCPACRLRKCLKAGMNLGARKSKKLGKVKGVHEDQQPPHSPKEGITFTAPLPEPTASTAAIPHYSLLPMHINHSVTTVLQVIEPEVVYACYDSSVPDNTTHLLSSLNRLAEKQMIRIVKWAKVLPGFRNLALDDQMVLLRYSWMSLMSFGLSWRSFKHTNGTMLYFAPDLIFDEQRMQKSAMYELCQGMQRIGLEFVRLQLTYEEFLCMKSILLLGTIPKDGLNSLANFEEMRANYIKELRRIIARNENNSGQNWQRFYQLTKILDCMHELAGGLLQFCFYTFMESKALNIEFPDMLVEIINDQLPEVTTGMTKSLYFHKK

[3] = target: T3, truncated elephant shark MR (Elephant shark MR-DBD-hinge-LBD) (Callorhinchus milii, UniProt A0A4W3I5J5); assay: cell-based; set-up: species or system HEK293
T3 sequence (A0A4W3I5J5 575-956 limits assumed): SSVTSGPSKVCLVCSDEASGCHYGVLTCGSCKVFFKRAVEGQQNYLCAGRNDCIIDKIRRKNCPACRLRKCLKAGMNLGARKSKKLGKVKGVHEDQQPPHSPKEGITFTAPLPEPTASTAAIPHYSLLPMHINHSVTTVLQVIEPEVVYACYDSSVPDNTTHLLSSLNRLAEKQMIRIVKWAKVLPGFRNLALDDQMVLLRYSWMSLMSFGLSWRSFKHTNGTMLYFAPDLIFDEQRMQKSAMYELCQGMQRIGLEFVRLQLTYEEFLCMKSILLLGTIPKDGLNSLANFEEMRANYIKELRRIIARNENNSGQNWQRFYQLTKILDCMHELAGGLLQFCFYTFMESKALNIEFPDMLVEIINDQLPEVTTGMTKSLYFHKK

[4] = target: T4, full-length elephant shark GR (Callorhinchus milii, UniProt V9KGN8); assay: cell-based; set-up: species or system HEK293
T4 sequence (V9KGN8 1-704): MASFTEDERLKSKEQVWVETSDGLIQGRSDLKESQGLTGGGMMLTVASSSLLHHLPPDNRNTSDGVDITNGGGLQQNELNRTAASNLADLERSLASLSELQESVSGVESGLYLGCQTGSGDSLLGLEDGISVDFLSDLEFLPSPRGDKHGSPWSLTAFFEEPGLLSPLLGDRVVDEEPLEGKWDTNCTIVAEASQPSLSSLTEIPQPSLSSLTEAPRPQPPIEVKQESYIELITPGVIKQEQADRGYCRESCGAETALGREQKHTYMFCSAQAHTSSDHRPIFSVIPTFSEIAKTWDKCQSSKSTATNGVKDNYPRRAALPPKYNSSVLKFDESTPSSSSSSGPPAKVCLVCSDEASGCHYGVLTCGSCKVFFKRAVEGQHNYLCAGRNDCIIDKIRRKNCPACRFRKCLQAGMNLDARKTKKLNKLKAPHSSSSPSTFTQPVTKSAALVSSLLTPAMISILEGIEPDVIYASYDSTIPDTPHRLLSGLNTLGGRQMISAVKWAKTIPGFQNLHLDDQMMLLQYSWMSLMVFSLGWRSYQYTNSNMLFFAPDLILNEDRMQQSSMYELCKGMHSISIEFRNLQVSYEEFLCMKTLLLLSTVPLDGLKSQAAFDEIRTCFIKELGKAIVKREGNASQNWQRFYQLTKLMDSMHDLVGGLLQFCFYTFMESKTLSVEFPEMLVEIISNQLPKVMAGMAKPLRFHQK

[5] = target: T3, truncated elephant shark MR (Elephant shark MR-DBD-hinge-LBD); assay: cell-based; set-up: species or system HEK293; remark: listed apart in the source
[6] = target: T4, full-length elephant shark GR; assay: transactivation assay, MMTV-luciferase reporter, HEK293 cells; format: cell-based
[7] = target: truncated elephant shark MR (Elephant shark MR-DBD-hinge-LBD) (Callorhinchus milii, UniProt A0A4W3I5J5); assay: cell-based
[8] = test system: Elephant shark Chimera GR-NTD+MR-DBD-hinge-LBD; details: agonist
[9] = target: T4, full-length elephant shark GR; assay: luciferase reporter transactivation, HEK293 cells; format: cell-based
[10] = target: T4, full-length elephant shark GR; assay: inhibition of dexamethasone-activated luciferase reporter, HEK293 cells; format: cell-based
[11] = target: T5, GAL4-DBD+elephant shark GR-hinge-LBD (Callorhinchus milii, UniProt V9KGN8); assay: cell-based; set-up: species or system HEK293
T5 sequence (V9KGN8 422-704 limits assumed): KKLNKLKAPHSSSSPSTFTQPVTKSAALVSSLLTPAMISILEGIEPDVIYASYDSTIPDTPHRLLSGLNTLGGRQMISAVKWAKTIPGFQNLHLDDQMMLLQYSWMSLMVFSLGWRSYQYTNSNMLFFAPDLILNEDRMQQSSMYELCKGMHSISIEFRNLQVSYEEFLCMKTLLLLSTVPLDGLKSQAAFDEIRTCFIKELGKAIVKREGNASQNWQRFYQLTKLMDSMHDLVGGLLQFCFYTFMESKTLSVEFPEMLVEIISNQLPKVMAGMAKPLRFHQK

[12] = test system: Elephant shark Chimera MR-NTD+GR-DBD-hinge-LBD; assay: transactivation assay, MMTV-luciferase reporter, HEK293 cells; format: cell-based, Callorhinchus milii; details: agonist
[13] = HEK293, read-out: Cortisol % Relative Induction, GR
[14] = HEK293, read-out: Cortisol % Relative Induction, MR
[15] = HEK293, read-out: Prog % Relative Induction, MR
[16] = HEK293, read-out: DOC % Relative Induction, GR
[17] = HEK293, read-out: DOC % Relative Induction, MR
[18] = HEK293, read-out: Aldo % Relative Induction, GR
[19] = HEK293, read-out: Corticosterone % Relative Induction, GR
[20] = HEK293, read-out: Corticosterone % Relative Induction, MR

- Emax [1, 13]: 112%
- Emax [2, 14]: 118%
- Emax [3, 14]: 117%
- Emax [4, 13]: 88%
- EC50 [5]: 1.1 nM
- EC50 [6]: ~35 nM
Structure (SMILES): C[C@]12CCC(=O)C=C1CC[C@@H]1[C@@H]2[C@@H](O)C[C@@]2(C)[C@H]1CC[C@]2(O)C(=O)CO [cortisol]

- Emax [1, 18]: 109%
- Emax [4, 18]: 92%
- EC50 [5]: 0.26 nM
- Emax [11, 18]: 81%
- EC50 [6]: ~24 nM
Structure (SMILES): C[C@]12CCC(=O)C=C1CC[C@@H]1[C@@H]2[C@@H](O)C[C@]2(C=O)[C@@H](C(=O)CO)CC[C@@H]12 [aldosterone]

- Emax [1, 19]: 100%
- EC50 [12]: 13 nM
- Emax [2, 20]: 88%
- Emax [3, 20]: 111%
- Emax [4, 19]: 100%
- EC50 [5]: 0.58 nM
- Emax [11, 19]: 100%
Structure (SMILES): C[C@]12C[C@H](O)[C@H]3[C@@H](CCC4=CC(=O)CC[C@@]43C)[C@@H]1CC[C@@H]2C(=O)CO [corticosterone]

The next lines start with the compound.

Structure (SMILES): CC(=O)[C@H]1CC[C@H]2[C@@H]3CCC4=CC(=O)CC[C@]4(C)[C@H]3CC[C@]12C [progesterone]
- Emax [2, 15]: 38%
- Emax [3, 15]: 78%

Structure (SMILES): C[C@]12CC[C@H]3[C@@H](CCC4=CC(=O)CC[C@@]43C)[C@@H]1CC[C@@H]2C(=O)CO [11-deoxycorticosterone]
- Emax [1, 16]: 30%
- Emax [2, 17]: 86%
- EC50 [7]: 0.1 nM
- Emax [3, 17]: 77%
- Emax [4, 16]: 53%
- EC50 [8]: 0.03 nM
- EC50 [6]: ~28 nM

Structure (SMILES): CC#C[C@]1(O)CC[C@H]2[C@@H]3CCC4=CC(=O)CCC4=C3[C@@H](c3ccc(N(C)C)cc3)C[C@@]21C [RU486]
- EC50 [9]: 8.7 nM
- IC50 [10]: 2.2 nM

Structure (SMILES): CC(=O)[C@H]1CC[C@H]2[C@@H]3CCC4=CC(=O)CC[C@@H]4[C@H]3CC[C@]12C [19norProg]
- Emax ([2]; HEK293, read-out: 19norProg % Relative Induction, MR): 79%
- EC50 [5]: 0.2 nM
